Assay results from publication PMC10861852, “Loss of activation by GABA in vertebrate delta ionotropic glutamate receptors” (Proceedings of the National Academy of Sciences of the …, 2024).
Numbering of substitutions follows the chain as printed.

Legend:
[1] = target: T1, AcaGluD (Acanthaster planci, UniProt A0A8B7XXR5); experiment: Two-electrode voltage clamp, ligand-gated currents in oocytes; assay type: cell-based; conditions: for inhibition of GABA-gated current / currents elicited when applied alone / enhancement of glutamate-gated currents: 100 μM; for inhibition of GABA-gated current: coapplied with ~EC30 GABA concentration; for enhancement of glutamate-gated currents: n = 5
T1 sequence (A0A8B7XXR5 24-958): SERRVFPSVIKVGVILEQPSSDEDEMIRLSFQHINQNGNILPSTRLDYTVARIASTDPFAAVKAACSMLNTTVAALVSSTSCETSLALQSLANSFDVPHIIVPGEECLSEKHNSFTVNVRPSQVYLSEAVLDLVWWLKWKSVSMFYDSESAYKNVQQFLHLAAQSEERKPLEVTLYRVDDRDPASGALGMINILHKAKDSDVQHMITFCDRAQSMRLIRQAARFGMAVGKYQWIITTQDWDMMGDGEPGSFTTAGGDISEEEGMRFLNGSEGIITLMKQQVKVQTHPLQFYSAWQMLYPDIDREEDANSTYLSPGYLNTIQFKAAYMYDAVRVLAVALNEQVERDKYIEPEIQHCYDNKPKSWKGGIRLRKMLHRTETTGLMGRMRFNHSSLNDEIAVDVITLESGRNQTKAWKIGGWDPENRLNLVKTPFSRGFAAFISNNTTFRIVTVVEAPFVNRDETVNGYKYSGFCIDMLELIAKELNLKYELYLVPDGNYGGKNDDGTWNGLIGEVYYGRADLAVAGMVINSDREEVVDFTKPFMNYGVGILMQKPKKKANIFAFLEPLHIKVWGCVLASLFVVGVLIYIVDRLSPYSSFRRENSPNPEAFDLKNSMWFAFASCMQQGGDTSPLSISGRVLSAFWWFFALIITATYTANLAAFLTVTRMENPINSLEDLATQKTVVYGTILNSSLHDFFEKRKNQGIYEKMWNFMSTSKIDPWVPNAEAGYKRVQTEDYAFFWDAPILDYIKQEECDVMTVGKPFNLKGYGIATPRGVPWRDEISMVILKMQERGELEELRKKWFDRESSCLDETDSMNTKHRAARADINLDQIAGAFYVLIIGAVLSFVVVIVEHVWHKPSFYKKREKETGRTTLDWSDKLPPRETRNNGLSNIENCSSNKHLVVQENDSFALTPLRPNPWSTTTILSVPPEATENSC

[2] = target: T2, WT RatGluD2 (Rattus norvegicus, UniProt Q63226); experiment: Two-electrode voltage clamp in oocytes; assay type: cell-based; conditions: n = 4
T2 construct: expressed in transfected cells; host or cells: Xenopus laevis oocytes injected with mRNA
T2 sequence (Q63226 24-1007): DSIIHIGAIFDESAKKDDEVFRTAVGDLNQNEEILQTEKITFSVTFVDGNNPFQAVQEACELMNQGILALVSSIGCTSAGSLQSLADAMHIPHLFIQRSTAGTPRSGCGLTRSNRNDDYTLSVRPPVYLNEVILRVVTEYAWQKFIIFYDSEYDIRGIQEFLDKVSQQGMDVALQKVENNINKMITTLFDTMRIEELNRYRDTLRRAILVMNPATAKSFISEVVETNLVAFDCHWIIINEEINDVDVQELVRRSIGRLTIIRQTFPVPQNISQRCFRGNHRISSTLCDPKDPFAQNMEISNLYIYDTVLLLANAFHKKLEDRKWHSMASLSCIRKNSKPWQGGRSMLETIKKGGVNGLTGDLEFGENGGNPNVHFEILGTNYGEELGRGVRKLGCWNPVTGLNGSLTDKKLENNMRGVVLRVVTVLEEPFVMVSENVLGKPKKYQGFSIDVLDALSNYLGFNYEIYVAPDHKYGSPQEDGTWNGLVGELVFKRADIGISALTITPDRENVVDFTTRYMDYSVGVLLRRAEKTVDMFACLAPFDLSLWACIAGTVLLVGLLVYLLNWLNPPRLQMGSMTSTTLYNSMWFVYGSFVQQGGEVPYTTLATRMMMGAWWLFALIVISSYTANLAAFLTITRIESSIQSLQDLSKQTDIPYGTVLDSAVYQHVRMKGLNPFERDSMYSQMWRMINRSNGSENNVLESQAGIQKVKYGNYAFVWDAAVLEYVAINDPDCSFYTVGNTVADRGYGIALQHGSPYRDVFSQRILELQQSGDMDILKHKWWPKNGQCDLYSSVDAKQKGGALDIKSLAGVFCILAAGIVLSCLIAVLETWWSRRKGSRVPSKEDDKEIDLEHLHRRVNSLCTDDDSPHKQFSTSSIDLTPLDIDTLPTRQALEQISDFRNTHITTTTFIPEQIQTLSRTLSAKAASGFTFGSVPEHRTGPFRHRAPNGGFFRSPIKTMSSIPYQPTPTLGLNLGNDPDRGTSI

[3] = target: T3, RatGluD2^Lc (Rattus norvegicus, UniProt Q63226, A654T); experiment: Two-electrode voltage clamp, inhibition of constitutive current in oocytes; conditions: each n = 4
T3 sequence (Q63226 24-1007 A654T): T2 sequence (Q63226 24-1007) with A631T
Description: (C) Left panels, example recordings of oocytes expressing A654T lurcher-mutant RatGluD2 (RatGluD2Lc) in response to indicated AMPA iGluR antagonists and D-serine. Dashed line, zero current baseline. Right panel, % inhibition at different oocytes (dots) and resulting means (columns).

[4] = target: T4, RatGluD2^9x (Rattus norvegicus, UniProt Q63226, A686S/D753Q/K694R/N720P/N763K/P806D/Q786M/R787V/Y613F); experiment: Two-electrode voltage clamp, responses to ligands in mutant-expressing oocytes; assay type: cell-based; conditions: ligands 30 mM
T4 construct: expressed in transfected cells; host or cells: Xenopus laevis oocytes injected with mRNA
T4 sequence (Q63226 24-1007 Y613F/A686S/K694R/N720P/D753Q/N763K/Q786M/R787V/P806D): T2 sequence (Q63226 24-1007) with Y590F, A663S, K671R, N697P, D730Q, N740K, Q763M, R764V, P783D
Description: (§1) If the 10 mutations discussed above drove the loss of function in vertebrate delta iGluRs, one might expect that the latter could be “reawakened” via active invertebrate delta iGluR-like mutations here. We therefore engineered mutant RatGluD2 iGluRs to contain at these positions the equivalent residues from starfish delta iGluRs. These mutants were RatGluD2^5x, containing Y613F, A686S, K694R, N720P, and P806D substitutions (pink in Fig. 6A), and RatGluD2^9x, additionally containing N763K, D753Q, Q786M, and R787V (cyan in Fig. 6A).
(§2) Fig. 6. AcaGluD-like mutations alter RatGluD2 receptor function. (A) D-serine bound RatGluD2 from X-ray structure PDB:2v3u ([13]). Selected amino acid residues are indicated, colored, shown as sticks, and labeled 5×, 9×, 10×, and/or Lc according to the multiple mutants they were incorporated into. 10× mutant included 10×, 9×, and 5× positions. 9× included 9× and 5×. 5× included only 5×. […] (B–E) Example current responses to different neurotransmitter ligands (30 mM) and to pore blocker pentamidine (Pent, 100 μM) in oocytes expressing indicated RatGluD2 mutants. The dashed line indicates zero current baseline. (F) Individual (dots) and mean (columns) responses to ligands in oocytes expressing indicated RatGluD2 mutants (n = 4 to 5).

[5] = target: T5, RatGluD2^5x (Rattus norvegicus, UniProt Q63226, A686S/K694R/N720P/P806D/Y613F); experiment: as above; assay type: cell-based; conditions: ligands 30 mM
T5 construct: expressed in transfected cells; host or cells: Xenopus laevis oocytes injected with mRNA
T5 sequence (Q63226 24-1007 Y613F/A686S/K694R/N720P/P806D): T2 sequence (Q63226 24-1007) with Y590F, A663S, K671R, N697P, P783D
Description: as §1, §2

O=C(O)c1cc(=O)c2c(Cl)cc(Cl)cc2[nH]1 [5,7-dichlorokynurenic acid]
inhibition of GABA-gated current [1]: 11 ± 5%

C[C@@H](NCc1cc(Br)cc2[nH]c(=O)c(=O)[nH]c12)P(=O)(O)O [CGP-78608]
inhibition of GABA-gated current [1]: 9 ± 3%

N#Cc1cc2[nH]c(=O)c(=O)[nH]c2cc1[N+](=O)[O-] [CNQX]
effect on oocytes expressing WT RatGluD2 [2]: no effect
currents elicited when applied alone [1]: elicited no currents
inhibition of GABA-gated current [1]: 81 ± 4%
enhancement of glutamate-gated currents [1]: no effect
inhibition of constitutive currents [3]: 10 ± 0.2%

O=[N+]([O-])c1cc2nc(O)c(O)nc2cc1[N+](=O)[O-] [DNQX]
effect on oocytes expressing WT RatGluD2 [2]: no effect
currents elicited when applied alone [1]: elicited no currents
inhibition of GABA-gated current [1]: 53 ± 3%
enhancement of glutamate-gated currents [1]: 34 ± 3%
inhibition of constitutive currents [3]: 11 ± 0.2%

N[C@@H](CCC(=O)O)C(=O)O [glutamate]
EC50 ([1]; 0 Ca2+, n = 4): ~30 mM
maximum ligand-gated current amplitude ([1]; in the presence of 1.8 mM Ca2+): 5.8 ± 0.6 µA
maximum ligand-gated current amplitude ([1]; nominally Ca2+-free solutions): 0.28 ± 0.02 µA
current response to ligand [4]: no responses
current response to ligand [5]: no responses
